Test results from patent publication EP2975030B1, “DIHYDROPYRIDAZINE-3,5-DIONE DERIVATIVE” (Chugai Seiyaku Kabushiki Kaisha, priority 2013, dated 2014).

What was measured:
[1] = test system: rat small-intestinal brush border membrane vesicles; assay: Inhibitory effect on 33PO4 uptake into rat small-intestinal brush border membrane vesicles (rapid filtration method); format: biochemical, Wistar female rat; conditions: 1 µM test compound, 33PO4 uptake into rat small-intestinal BBMVs, 60 seconds
How it was run: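 Uptake was terminated by ice-cold 110 mM NaCl, 1 mM KH2PO4, 10 mM HEPES (pH 7.5) buffer and immediate suction filtration, then washing. Using rat small-intestinal BBMVs, retained 33PO4 was quantified by liquid scintillation counting as transport activity.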

[2] = test system: adenine-induced renal failure rat; assay: Suppressive effect on rise in serum phosphorus concentration of adenine-induced renal failure rat (0.05% in feed, 8 days); format: in vivo, Wistar male rat; conditions: rate of suppression of a rise in serum phosphorus concentration, 0.05% of mass concentration in feed
Protocol: Test Example 6: Suppressive effect on rise in serum phosphorus concentration of adenine-induced renal failure rat
Each adenine-induced renal failure rat was prepared in the same way as in Test Example 5. Each test compound was mixed at a ratio of 0.05% of mass concentration with feed. The animal was fed with a given amount of the feed for 8 days. A group given feed non-supplemented with a test compound was used as a reference pathological group, and an adenine-unadministered group given feed non-supplemented with a test compound was used as a normal group. 8 days after the start of administration of the test compound, blood was collected from the jugular vein, and serum was collected. Serum phosphorus concentrations were measured by the Fiske-Subbarow method. The rate of suppression of a rise in serum phosphorus concentration was determined according to the following expression: Rate (%) of supression of a rise in serum phosphorus concentration = (1−[(Serumphosphorusconcentrationofthetestcompound−treatedpathologicalgroup)−(Serumphosphorusconcentrationofthenormalgroup)]/[(Serumphosphorusconcentrationofthereferencepathologicalgroup)−(Serumphosphorusconcentrationofthenormalgroup)]) × 100 [formula]
As a result, each test compound was confirmed to have a suppressive effect on a rise in serum phosphorus concentration. […]

[3] = test system: human NaPi-IIb; assay: Inhibitory effect on 33PO4 uptake into human NaPi-IIb-expressing cell; format: cell-based; conditions: CHO cells stably expressing human NaPi-IIb, 1, 3, 10, or 30 µM
Protocol: CHO cells were transfected with human NaPi-IIb expression plasmids, and a stably human NaPi-IIb-expressing cell line was obtained using G418. The human NaPi-IIb-expressing cells were inoculated to a 96-well plate and incubated overnight in a CO2 incubator. The medium was replaced with buffer A (145 mM choline chloride, 3 mM KCl, 1 mM CaCl2, 0.5 mM MgCl2, 5 mM glucose, and 5 mM MES (pH 6.5)) and then replaced with buffer B (145 mM NaCl, 3 mM KCl, 1 mM CaCl2, 0.5 mM MgCl2, 5 mM glucose, and 5 mM MES (pH 6.5)) supplemented with each test compound at a final concentration of 1,3, 10, or 30 µM or buffer A supplemented with DMSO. After a given time, a 1/20 volume of buffer A containing ^33PO4 was added thereto and reacted at room temperature. After washing with ice-cold buffer A, a liquid scintillator was added to each reaction mixture, and the amount of ^33PO4 uptake was measured using TopCount. The rate of inhibition was determined according to the following expression: [formula]

Row | Structure (SMILES) | Rate of uptake inhibition (%) (1 µM) [1] | Rate of inhibition (%) [2] [%] | IC50 [3] [µM] | Rate of uptake inhibition (%) (1 µM) ([1]; 1 µM)
1 | CN(C)CC(C)(C)COc1ccc(CN2C(=O)C(C(=O)Nc3ccc(C(F)(F)F)cc3-c3cc(C(F)(F)F)ncn3)=C(O)C3(CCCC3)N2C)c(F)c1F [Example 414, 7-(4-(3-(Dimethylamino)-2,2-dimethylpropoxy)-2,3-difluorobenzyl)-10-hydroxy-6-methyl-8-oxo-N-(4-(trifluoromethyl)-2-(6-(trifluoromethyl)pyrimidin-4-yl)phenyl)-6,7-diazaspiro[4.5]dec-9-ene-9-carboxamide] | 27 | 37 |  | 
2 | CN(C[C@H](O)[C@@H](O)[C@H](O)[C@H](O)CO)C(=O)CCCOc1ccc(CN2C(=O)C(C(=O)Nc3ccc(C(F)(F)F)cc3-c3cc(C(F)(F)F)ncn3)=C(O)C3(CCCC3)N2C)c(F)c1F [Example 418, 7-[[2,3-Difluoro-4-[4-[methyl-[(2S,3R,4R,5R)-2,3,4,5,6-pentahydroxyhexyl]amino]-4-oxobutoxy]phenyl]methyl]-10-hydroxy-6-methyl-8-oxo-N-[4-(trifluoromethyl)-2-[6-(trifluoromethyl)pyrimidin-4-yl]phenyl]-6,7-diazaspiro[4.5]dec-9-ene-9-carboxamide] | 29 | 38 |  | 
3 | CN1N(Cc2ccc(OCCNCCS(=O)(=O)O)c(F)c2F)C(=O)C(C(=O)Nc2ccc(C(F)(F)F)cc2-c2cc(C(F)(F)F)ncn2)=C(O)C12CCCC2 [Example 436, 2-[2-[2,3-Difluoro-4-[[10-hydroxy-6-methyl-8-oxo-9-[[4-(trifluoromethyl)-2-[6-(trifluoromethyl)pyrimidin-4-yl]phenyl]carbamoyl]-6,7-diazaspiro[4.5]dec-9-en-7-vl]methyl]phenoxy]ethylamino]ethanesulfonic acid] |  |  | 14 | 12
